Assay results reported in patent US8557796B2, “Substituted 1-oxa-2,8-diaza-spiro [4,5] dec-2-ene derivatives and related treatment methods” (Gruenenthal GmbH, priority 2001, dated 2013).

Each compound was assayed on batrachotoxin (BTX) binding site (binding site 2) of the sodium channel (assay: Bond test on the sodium channel, binding site 2 (BTX bond), [3H]-batrachotoxinin A20 α-benzoate displacement). Settings: rat cerebrocortex synaptosomes.

SMILES | BTX bond, 10 μM, % inhibition [%]
CCOC(=O)C1CCCCN1C(=O)C1=NOC2(CCN(C(=O)c3ccc(C(C)(C)C)cc3)CC2)C1 (stereo not shown) [Example 195, 1-[8-(4-tert-butyl-benzoyl)-1-oxa-2,8-diaza-spiro[4,5]dec-2-ene-3-carbonyl]-piperidine-2-carboxylic acid ethyl ester] | 85
Cc1ccc(F)cc1S(=O)(=O)N1CCC2(CC1)CC(C(=O)NCc1cccs1)=NO2 [Example 150, 8-(5-fluoro-2-methyl-benzenesulphonyl)-1-oxa-2,8-diaza-spiro[4,5]dec-2-ene-3-carboxylic acid (thiophen-2-ylmethyl)-amide] | 86
Cc1ccc([N+](=O)[O-])cc1S(=O)(=O)N1CCC2(CC1)CC(C(=O)NCCN(C)C)=NO2 [Example 19, 8-(2-methyl-5-nitro-benzenesulphonyl)-1-oxa-2,8-diaza-spiro[4,5]dec-2-ene-3 carboxylic acid (2-dimethylamino-ethyl)-amide] | 66
CCCC(=O)N1CCC2(CC1)CC(C(=O)NC1CCN(C(=O)OCC)CC1)=NO2 [Example 74, 4-[(8-butyryl-1-oxa-2,8-diaza-spiro[4,5]dec-2-ene-3-carbonyl)-amino]-piperidine-l-carboxylic acid ethyl ester] | 47
CN(C)S(=O)(=O)N1CCC2(CC1)CC(C(=O)NC1CCCC1OCc1ccccc1)=NO2 (stereo not shown) [Example 163, 8-dimethylsulphamoyl-1-oxa-2,8-diaza-spiro[4,5]dec-2-ene-3-acarboxylic cid (2-benzyloxy-cyclopentyl)-amide] | 40
Cc1ccc(S(=O)(=O)N2CCC3(CC2)CC(C(=O)N(CCc2ccccc2)Cc2ccccc2)=NO3)cc1 [Example 18, 8-(toluene-4-sulphonyl)-1-oxa-2,8-diaza-spiro[4,5]dec-2-ene-3-carboxylic acid benzyl-phenethyl-amide] | 53
N#CCCN(Cc1cccnc1)C(=O)C1=NOC2(CCN(S(=O)(=O)c3cc(Cl)ccc3Cl)CC2)C1 [Example 99, 8-(2,5-dichloro-benzenesulphonyl)-1-oxa-2,8-diaza-spiro[4,5]dec-2-ene-3-carboxylic acid (2-cyano-ethyl)-pyridin-3-ylmethyl-amide] | 50
O=C(Nc1ccccc1)C1=NOC2(CCN(C(=O)c3cccc(Cl)c3Cl)CC2)C1 [Example 172, 8-(2,3-dichloro-benzoyl)-1-oxa-2,8-diaza-spiro[4,5]dec-2-ene-3-carboxylic acid phenylamide] | 60
O=C(NCCCc1ccccc1)C1=NOC2(CCN(S(=O)(=O)c3ccc(F)cc3)CC2)C1 [Example 193, 8-(4-fluoro-benzenesulphonyl)-1-oxa-2,8-diaza-spiro[4,5]dec-2-ene-3-carboxylic acid (3-phenyl-propyl)-amide] | 66
O=C(NC1CCN(Cc2ccc3ccccc3c2)C1)C1=NOC2(CCN(S(=O)(=O)c3ccc(Cl)s3)CC2)C1 (stereo not shown) [Example 50, 8-(5-chloro-thiophene-2-sulphonyl)-1-oxa-2,8-diaza-spiro[4,5]dec-2-ene-3 carboxylic acid (1-naphthalen-2-ylmethyl-pyrrolidin-3-yl)-amide] | 87
